Experimental data: US20060073156A1, “Fosfomycin and n-acetylcysteine for the treatment of biofilms caused by escheric ia coli and other pathogens of the urinary tract” (ZAMBON GROUP S.P.A., priority 2002, published 2006)
Values joined by “and” are separate entries in the source; they are usually repeats but may differ in a detail not shown here. Equal entries are not always repeated. Where two headings read alike, the source gives them in different places.

Tests used:
[1] = tested on: biofilm produced by Escherichia coli; assay: Formation of biofilm, Crystal Violet staining in polystyrene microplates, measured at 492 nm; type: cell-based; details: various concentrations of NAC added to the cultures; three strains out of four
Protocol: (§1) The effects of NAC and fosfomycin on the biofilm produced by Escherichia coli have been evaluated on four strains designated 169, 255, 1263 and 1293, from the Microbiological Collection of the Genua University.
(§2) Formation of the biofilms was measured spectrophotometrically in U-bottom polystyrene microplates (Corning Incorporated, NY).
In more detail, the effect of NAC on the formation of biofilms was evaluated as follows: overnight cultures in Tryptic Soy Broth (TSB) with addition of glucose (0.25%). (TSBG) were diluted 1:100 in TSBG. These suspensions (100 μl each) were added to suitable dilutions of NAC at concentrations ranging from 8 mg/ml to 0.007 mg/ml respectively. After incubation at 37° C. for 24 hours, the microplates were washed three times with 10 mM phosphate buffer pH 7.4 (PBS), treated with Bouin fixative and then stained with Crystal Violet (0.01%).
(§3) The biofilm adhering to the walls of the microplates was collected via washing with PBS, suspended in 10% sarbosyl and measured spectrophotometrically at 492 nm.

Escherichia coli = assay: Bacterial growth of cultures with NAC added; type: cell-based; details: various concentrations of NAC added to the cultures; all E. coli strains tested
[2] = tested on: biofilm produced by Escherichia coli; assay: Disruption of biofilms: residual quantity of biofilm after treatment of initial (5 hours) and fully consolidated (48 hours) biofilms; type: cell-based; details: NAC alone; for reduction of mature biofilms: mature (48 hours) biofilms
Protocol: as §1, §2, §3
The same method was used for calculating the residual quantity of biofilm after treatment with NAC and fosfomycin, alone or associated, on Escherichia coli. For this purpose, biofilms with two different degrees of maturity: initial (5 hours) and fully consolidated (48 hours) were exposed to appropriate concentrations of NAC (from 8 mg/ml to 0.007 mg/ml) with addition of fosfomycin at the concentrations attainable in vivo in the urine.

[3] = tested on: biofilms of P. aeruginosa; details: Antimicrob. Agents Chemother., 35, 1258, (1991); cited from earlier work
S. epidermidis = details: J. Ant. Chem., 39, 643, (1997); cited from earlier work
[4] = tested on: Escherichia coli cells of the biofilm; assay: Bacterial viability of biofilm cells: sonication, seeding, count of viable units (CFU/ml); type: cell-based; details: for inhibition at 2000 µg/mL: Escherichia coli, fosfomycin 2000 mg/l alone, read-out: reductions in viable units
Protocol: as §1
At the same time the biofilms treated in this way were submitted to sonication in order to disperse the cells that were still adhering, which were seeded on rich medium after suitable dilution for calculating the viable units that survived the various treatments.

SMILES	reductions in biofilm (formation) [1]	changes in bacterial growth (Escherichia coli)	reduction of initial biofilms ([2]; initial (5 hours) biofilms, strains not named)	reduction of mature biofilms ([2]; Escherichia coli 169)	reduction of mature biofilms ([2]; three strains out of four)	ability to disrupt biofilms [3]	inhibition of biofilm formation (S. epidermidis)	inhibition at 2000 µg/mL ([4]; fully consolidated biofilms)	inhibition at 2000 µg/mL ([4]; initial biofilms)	reductions in CFU/ml ([4]; fosfomycin 128 mg/l alone)
CC(=O)N[C@@H](CS)C(=O)O [NAC, N-acetylcysteine]	greater than 50%	did not cause appreciable changes	51.7% and 64.0% and 58.4%	25.2%	64.3% and 60.2% and 67.7%	ability to disrupt biofilms	inhibit their formation	–	–	–
C[C@@H]1O[C@@H]1P(=O)(O)O [fosfomycin, Fosfomycin]	–	–	–	–	–	–	–	36 to 85.7%	98 to 99.5%	less than 1 logarithm
